PMC8881063 (Journal of Enzyme Inhibition and Medicinal Chemistry, 2022)
Entries after “also recorded” stand apart in the source; their conditions may differ.

Key:
MAO-B [1] = target: T1, MAO-B (Homo sapiens, UniProt P27338); assay: MAO-B inhibition kinetic study (Michaelis–Menten, Lineweaver–Burk); format: biochemical
T1 sequence (P27338 1-520): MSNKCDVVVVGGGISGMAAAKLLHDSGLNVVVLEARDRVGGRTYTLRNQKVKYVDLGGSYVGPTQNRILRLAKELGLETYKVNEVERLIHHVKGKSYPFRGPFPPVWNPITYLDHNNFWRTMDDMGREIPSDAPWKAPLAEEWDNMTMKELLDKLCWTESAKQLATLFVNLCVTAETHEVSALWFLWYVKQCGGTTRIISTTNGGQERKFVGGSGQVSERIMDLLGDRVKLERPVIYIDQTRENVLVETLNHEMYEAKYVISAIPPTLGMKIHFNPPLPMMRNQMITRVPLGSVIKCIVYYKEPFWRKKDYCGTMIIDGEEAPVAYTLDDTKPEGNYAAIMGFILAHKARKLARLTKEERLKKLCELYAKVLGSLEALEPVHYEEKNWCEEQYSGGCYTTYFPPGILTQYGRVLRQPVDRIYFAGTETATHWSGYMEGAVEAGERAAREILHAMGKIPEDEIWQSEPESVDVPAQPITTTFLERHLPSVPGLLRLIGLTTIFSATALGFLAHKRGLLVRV
Procedure: (§1) To get insights into MAO-B inhibition reaction by compounds 1p and 1y, a kinetic study and reversibility testing were conducted. As illustrated in Figure 4(A,B), Michaelis–Menten graphs were constructed using different concentrations of compounds 1p and 1y employing different concentrations benzylamine as a substrate.
(§2) Kinetics of the inhibition of MAO-B and testing of reversibility were conducted according to literature-reported protocols[59] as indicated in the Supporting information.

BV2 cells = assay: BV2 cell viability, WST-1 assay; format: cell-based; settings: doses of 1, 10, 30 and 50 µM
Source text: Promising antineurodegenrative candidate molecules should not impair viability of CNS cells. Microglia are critical cells within CNS involved in microglia–neuron communications and are responsible for maintenance of brain integrity and health[61]^,[62]. However, under neuroinflammatory conditions, aberrant activation of microglia contributes to neurodegeneration and disease progression. In this regard, suppression of the abnormal activation while maintenance of viability of microglia is important considerations. […] The viability assay was carried out using the water-soluble tetrazolium reagent WST-1 which eliminates the formazan dissolution step requested in case of MTT[65] employing multiple doses of 1, 10, 30, and 50 µM. […] In lieu of this, it might be inferred that these compounds showing effective inhibition of MAO-B activity and triggering no impairment of microglia viability are good candidates might be advanced for further evaluation towards the development of multifunctional molecules for neurodegenerative diseases such as PD.
The impact of the compounds on the viability of cells was performed by the well-known WST-1 assay method as described in the Supporting information.

MAO-B [2] = target: T1, MAO-B; assay: MAO-B inhibition reversibility testing (washing); format: biochemical; settings: enzymatic activity after washing
Procedure: as §1, §2

recombinant human MAO-A = target: T2, recombinant human MAO-A (Homo sapiens, UniProt P21397); assay: hMAO-A inhibition, spectrophotometric assay; format: biochemical
T2 sequence (P21397 1-527): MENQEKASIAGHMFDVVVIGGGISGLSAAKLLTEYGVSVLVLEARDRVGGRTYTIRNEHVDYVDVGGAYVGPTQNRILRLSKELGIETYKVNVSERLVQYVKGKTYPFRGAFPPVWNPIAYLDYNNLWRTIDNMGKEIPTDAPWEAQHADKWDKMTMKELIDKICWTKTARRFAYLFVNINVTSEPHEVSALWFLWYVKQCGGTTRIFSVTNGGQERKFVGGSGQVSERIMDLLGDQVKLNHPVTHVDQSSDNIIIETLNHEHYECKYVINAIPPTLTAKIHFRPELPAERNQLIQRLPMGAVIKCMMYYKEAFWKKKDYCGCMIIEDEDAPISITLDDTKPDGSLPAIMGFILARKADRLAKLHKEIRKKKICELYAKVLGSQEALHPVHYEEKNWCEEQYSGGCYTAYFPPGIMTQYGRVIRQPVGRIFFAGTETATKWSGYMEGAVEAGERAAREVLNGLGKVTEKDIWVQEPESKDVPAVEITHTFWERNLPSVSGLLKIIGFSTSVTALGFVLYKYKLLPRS
Source text: Two different MAO isoforms are known.

[3] = system: LPS-treated BV2 cells (NO production); assay: LPS-induced production of nitric oxide in BV2 cells; format: cell-based; settings: different concentrations, Figure 3(A)
Procedure: (§3) Neuroinflammation is a crucial component in neurodegenerative diseases. Chronic activation of microglia, which are the brain-resident form of macrophages, results in sustained production of several proinflammatory mediators including glial NO, PGE2, and others molecules that are implicated in multiple neurodegenerative diseases. […] In this regard, LPS-treated BV2 cells were incubated with or without different concentrations of each compound. […] Based on collective results of antineuroinflammatory activity evaluation, in conjugation with above-conducted MAO inhibitions’ assays, compound 1p might be claimed as a promising lead compound eliciting polypharmacological effects combining inhibition of neuroinflammation and MAO-B activity; both processes are crucial components of neurodegenerative diseases such as PD.
(§4) The abilities of compounds to inhibit the induced production of NO and PGE2 were assessed by well-known protocol as indicated in the Supporting information.

[4] = system: LPS-treated BV2 cells (PGE2 production); assay: LPS-induced production of PGE2 in BV2 cells; format: cell-based; settings: different concentrations, Figure 3(B)
Procedure: as §3, §4

MAO-B [5] = target: T1, MAO-B; assay: hMAO-B inhibition, spectrophotometric assay
Procedure: The inhibitory activities of the compounds against hMAO-A and hMAO-B enzymes were evaluated referring to a previously described method (Supporting information)[49].

Ki (MAO-B [1]; benzylamine as substrate): 36.5 nM
Reversibility of MAO-B inhibition (MAO-B [2]): washing restored the enzymatic activity
IC50 (recombinant human MAO-A): > 100000 nM
inhibition at 10 µM (recombinant human MAO-A; single dose concentration of 10 µM): -1.53%
IC50 (MAO-B [5]): 171 nM
Selectivity index for inhibition of MAO-B (MAO-B [5]; IC50 MAO-A divided by IC50 MAO-B): >583
inhibition at 10 µM (MAO-B [5]; read-out: MAO-B % Inhibition, single dose concentration of 10 µM): 96.7%
Compound: COc1ccc(/C=C2\Oc3cc(O)ccc3C2=O)c(OC)c1OC [Compound 1p]
Type of MAO-B inhibition (MAO-B [1]; Lineweaver–Burk plots): competitive inhibitors; also recorded: Competitive inhibition
Impact on viability of BV2 cells (BV2 cells): none of the tested concentrations
Effect on LPS-induced NO production by BV2 cells [3]: significant inhibition of NO production
Effect on LPS-induced PGE2 production by BV2 cells [4]: effectively suppressed the induced-PGE2 production
